Assays:
dog STING (dSTING) = assay: Dog differential scanning fluorimetry (DSF) assay, thermal shift of dog STING protein; type: binding; details: DSF (dDSF); 100 μM compound, 3 μM dog STING protein; Tm with ligand minus Tm of protein alone
Description: The protein used for the biophysical experiments was a recombinant dog STING protein comprising its cytosolic cGAMP binding ectodomain. A codon optimized DNA sequence (for expression in Escherichia coli) encoding amino acid residues 149 to 375 of dog STING was synthesized by GeneArt (Regensburg, Germany) and inserted into a pET17b E. coli expression vector. The protein construct encodes an N-terminal 8×His-tag followed by tobacco etch virus protease (TEV) cleavage site and the above STING gene sequence. The resulting protein sequence for the used dog STING protein (SEQ ID No. 1) is listed below:
For expression of the above recombinant dog STING, the construct was transformed into E. coli BL21 DE3 strain and grown in shake flasks in LB-medium at 15° C. Expression was induced by addition of isopropyl β-D-1-thiogalactopyranoside to a final concentration of 1 mM and cultures shaken overnight. Cell pellets were centrifuged and stored at −70° C. until further use. Protein was purified by cell thawing in lysis buffer (20 mM TRIS-HCl, pH 8, 500 mM NaCl, 1 mM DTT, 0.5 mg/ml lysozyme, Complete Protease Inhibitor (Roche) and DNase (Roche)), followed by metal affinity purification using Ni-NTA resins and elution buffer consisting of 20 mM TRIS-HCl, pH 8, 500 mM NaCl, 1 mM DTT, 300 mM imidazole. Cleavage of the His-Tag using TEV-protease took place during dialysis in size exclusion buffer (20 mM TRIS-HCl, pH 8, 100 mM NaCl, 1 mM DTT) over night. To further purify the target protein a reverse Nickel affinity column was used and the flow through was applied to a size exclusion chromatography. The peak fraction was collected and concentrated to 5 mg/mL.
Dye fluorescence is quenched in aqueous environment and increases upon association of the dye with the hydrophobic parts of the unfolding protein. […] The inflection point of the curve represents the “melting” temperature of the protein (Tm) which is calculated numerically using the Boltzmann equation.
The thermal stability of the dog STING protein was measured in assay buffer containing 20 mM Tris, 150 mM NaCl at pH7.5. The assay uses 384-Well qPCR Plates (Catalog #781358, BRAND), Microseal® ‘B’ Adhesive Seals for PCR Plates (Catalog #MSB-1001, BIO-RAD) and was run on a CFX384 Real-Time System (Bio-Rad). A DMSO stock solution of SYPRO orange (SIGMA 55692-500UL) was prepared. Compound stock solutions (10 mM in DMSO) were diluted 1:2 in DMSO to an intermediate compound concentration of 5 mM and then further diluted 1:40 in assay buffer resulting in a compound concentration of 125 μM and 2.5% DMSO. Fluorescent dye stock solution (5000×SYPRO Orange) was then mixed with target protein and buffer to a concentration of 15 μM Protein and 25×SYPRO Orange. 2 μl of this protein-dye-mixture was added to 8 μl compound solution. Final volume was 10 μL. 3-6 well positions were used as negative control (protein with 2% DMSO). The plates were prepared for duplicate measurement and centrifuged for 2 min at 1000 g. In the measurement, 160 cycles of 0.5° C. were used (temperature ramp 15 s/cycle, 15° C. to 95° C.).
Final Assay concentrations for compound characterization were 100 μM compound, 3 μM target protein, 5×SYPRO Orange, and 2% DMSO in 10 μl. All dispensing steps were performed using a HamiltonStar pipetting robot (Hamilton).
Dissociation curves were processed in Bio-Rad CFX Manager. Peak type was set to “negative”. Compound codes for screen were assigned in the plate layout.
Two replicates of TM measurements were averaged, and the standard deviation was calculated. In cases of SD>1.5° C. the measurement was repeated.
The melting point (Tm) obtained for STING protein alone was subtracted from T obtained for protein incubated with ligand to generate ΔTm values.

STING = STING (Canis lupus familiaris, UniProt A0A8I3MH52); assay: Dog whole blood (dWB) assay, IFNb secretion by ELISA; type: cell-based; details: canine Interferon-beta (IFNb) ELISA, 4 h incubation at 37° C.
Chain of STING (A0A8I3MH52 1-374): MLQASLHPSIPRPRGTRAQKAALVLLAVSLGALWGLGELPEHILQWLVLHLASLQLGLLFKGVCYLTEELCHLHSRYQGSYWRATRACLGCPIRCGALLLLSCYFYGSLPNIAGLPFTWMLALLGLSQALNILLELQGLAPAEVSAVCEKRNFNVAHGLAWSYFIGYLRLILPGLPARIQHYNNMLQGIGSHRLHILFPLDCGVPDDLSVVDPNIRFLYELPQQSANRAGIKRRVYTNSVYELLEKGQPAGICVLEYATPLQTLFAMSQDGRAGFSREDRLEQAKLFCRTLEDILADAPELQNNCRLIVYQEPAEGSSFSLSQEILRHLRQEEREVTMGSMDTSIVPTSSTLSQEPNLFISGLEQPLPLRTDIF
Protocol: For the detection of STING activation in physiological environment dog whole blood (dWB) was stimulated by the cyclic dinucleotide cGAMP or a test compound. Pathway activity was monitored by measuring the IFNb production.
Compounds were delivered as 10 mM DMSO solution, diluted and transferred by using an Echo acoustic dispenser to the 384 well assay plate (Greiner #781182), pre-filled with 10 μl 1×HBSS in each well (10×HBSS (+Ca/+Mg), #14065-049, Gibco). Typically, 8 concentrations were used with the highest concentration at 10 μM in the final assay volume followed by approximately 1:4 dilution steps. DMSO concentration was set to 0.1% in the final assay volume. The 384-well assay plate contained 20 test compounds and DMSO in control and cGAMP standard wells. The dog whole blood was collected as Na-Citrate blood (e.g., 3.8% in Monovettes from Sarstedt) and kept at 4° C. overnight until use in the assay. 80 μl of the whole blood samples were transferred to each well of the 384-well assay plates filled with compound/1×HBSS. Blood plates were kept at room temperature for 60 minutes and continuous shaking with 450 rpm, covered with the lid, but not sealed. A 10×cGAMP assay solution was diluted from a 2 mM stock solution in 1×HBSS immediately before use at room temperature. 10 μl of the 10×cGAMP/HBSS were added to the high control wells, whereas HBSS only was added to all compound and low control wells. After covering assay plates with the lid, blood plates were kept for a 4 h incubation at 37° C. in the incubator, without shaking. For the detection of IFNb in dog plasma the ELISA Kit for Canine Interferon Beta (Biotrend #SEA222Ca) was used. Whole blood assay plates were centrifuged at 1000 g for 10 minutes at 8° C. […] was transferred with a 96 well pipetting robotics from the 384 well whole blood plate to the corresponding 96 well ELISA plate, pre-filled with 60 μl assay diluent in each well. Plates were sealed with microplate seals and kept at 4° C. overnight again. ELISA plates were brought to room temperature, followed by a 1 h incubation at 37° C. in the incubator. Detection Reagent A working solution was prepared by diluting Detection Reagent A 1:100 in Assay Reagent A. Liquid was then removed from the 96 well ELISA plate to add 100 μL Detection Reagent A working solution to each well. ELISA plates were covered with the plate sealer and incubated for 1 hour at 37° C. in the incubator. The 1× Wash buffer was prepared by diluting the 30× Wash Buffer Concentrate in H2O. Detection Reagent B working solution was prepared by diluting Detection Reagent B 1:100 in Assay Reagent B. The ELISA plates were washed three times with 350 μl wash buffer and afterwards inverted and blotted against absorbent paper to remove any liquid. 100 μL of Detection Reagent B working solution was added to each well of the ELISA plates, which are then covered with the plate sealer and incubated for 30 minutes at 37° C. in the incubator. After incubation the ELISA assay plates were washed five times with 350 μl wash buffer and were again inverted and blotted against absorbent paper to remove any remaining liquid. 90 μL of TMB Substrate was added to each well of the ELISA plates, which were then covered with the plate sealer and incubated for 15 minutes at 37° C. in the incubator. The reaction was stopped by adding 50 μL stop solution and absorbance was measured at 450 nm immediately.
For data evaluation and calculation, % control calculation of each well was based on the mean of high (cGAMP stimulated control) and mean of low (unstimulated control) controls by using the following standard 4 parameter logistic regression formula:
[y=(a−d)/(1+(x/c)^b)+d] • a=low value, • d=high value, • x=conc M, • c=EC50 M, • b=slope. Dog Liver Microsome (dLM) Assay

Compound	Delta TM (dog STING (dSTING)) [°C]	EC50 (STING) [nM]
Cc1cccc2c(-c3c(F)ccc4nn(C)cc34)nn(-c3ccc(N4C[C@@H]5C[C@H]4C[C@H]5C(=O)O)nc3)c12 [Example 27-1, (1S,4R,5R)-2-(5-{5″-fluoro-2″,7-dimethyl-1H,2″H-[3,4″-biindazol]-1-yl}pyridin-2-yl)-2-azabicyclo[2.2.1]heptane-5-carboxylic acid]	36.9	211
Cc1cccc2c(-c3cccc4nn(C)c(F)c34)nn(-c3ccc(N4CCOC(CC(=O)O)C4)nc3)c12 (single isomer, unassigned) [Example 72-1]	30.0	810
Cc1cccc2c(-c3c(F)cc(F)c4nn(C)cc34)nn(-c3ccc(N4CC5CCC4CC5C(=O)O)nc3)c12 (single isomer, unassigned) [Example 48-3]	35.4	184
Cc1cc(F)cc2c(-c3c(F)cc(F)c4nn(C)cc34)nn(-c3ccc(N4CCC(C(=O)O)CC4)nc3)c12 [Example 67, 1-(5-{5,5″,7″-trifluoro-2″,7-dimethyl-1H,2″H-[3,4″-biindazol]-1-yl}pyridin-2-yl)piperidine-4-carboxylic acid]	37.0	102
Cc1cccc2c(-c3c(Cl)ccc4nn(C)cc34)nn(-c3ccc(N4C[C@@H]5[C@H](C4)[C@H]5C(=O)O)nc3)c12 [Example 77, (1R,5S,6S)-3-(5-{5″-chloro-2″,7-dimethyl-1H,2″H-[3,4″-biindazol]-1-yl}pyridin-2-yl)-3-azabicyclo[3.1.0]hexane-6-carboxylic acid]	27.4	1090
Cc1cccc2c(-c3ccc(F)c4nn(C)c(F)c34)nn(-c3ccc(N4C[C@@H]5[C@H](C4)[C@H]5C(=O)O)nc3)c12 [Example 13, (1R,5S,6R)-3-(5-{3″,7″-Difluoro-2″,7-dimethyl-1H,2″H-[3,4″-biindazol]-1-yl}pyridin-2-yl)-3-azabicyclo[3.1.0]hexane-6-carboxylic acid]	33.3	174
CC(=O)N1CCN(c2ccc(-n3nc(-c4c(F)ccc5nn(C)cc45)c4cccc(C)c43)cn2)CC1 [Example 29, 1-[4-(5-{5″-fluoro-2″,7-dimethyl-1H,2″H-[3,4″-biindazol]-1-yl}pyridin-2-yl)piperazin-1-yl]ethan-1-one]	32.0	140
Cc1cccc2c(-c3c(F)ccc4nn(C)cc34)nn(-c3ccc(N4CC[C@H](CC(=O)O)C4)nc3)c12 [Example 25, 2-[(3R)-1-(5-{5″-fluoro-2″,7-dimethyl-1H,2″H-[3,4″-biindazol]-1-yl}pyridin-2-yl)pyrrolidin-3-yl]acetic acid]	37.0	283
Cc1cccc2c(-c3c(F)ccc4nn(C)cc34)nn(-c3ccc(N4CC[C@@H](CC(=O)O)C4)nc3)c12 [Example 24, 2-[(3S)-1-(5-{5″-fluoro-2″,7-dimethyl-1H,2″H-[3,4″-biindazol]-1-yl}pyridin-2-yl)pyrrolidin-3-yl]acetic acid]	35.5	270
Cc1cccc2c(-c3cccc4nn(C)c(F)c34)nn(-c3ccc(N4CCOC(CC(=O)O)C4)nc3)c12 (single isomer, unassigned) [Example 72-3]	28.5	5230
Cc1cc(F)cc2c(-c3c(F)cc(F)c4nn(C)cc34)nn(-c3ccc(N4C[C@@H]5[C@H](C4)[C@H]5C(=O)O)nc3)c12 [Example 15, (1R,5S,6R)-3-(5-{5,5″,7″-Trifluoro-2″,7-dimethyl-1H,2″H-[3,4″-biindazol]-1-yl}pyridin-2-yl)-3-azabicyclo[3.1.0]hexane-6-carboxylic acid]	36.8	1170
Cc1cccc2c(-c3c(F)cc(F)c4nn(C)cc34)nn(-c3ccc(N4CCC(C(=O)O)CC4)nc3)c12 [Example 44, 1-(5-{5″,7″-difluoro-2″,7-dimethyl-1H,2″H-[3,4″-biindazol]-1-yl}pyridin-2-yl)piperidine-4-carboxylic acid]	34.5	388
2-[4-(5-{3″-fluoro-2″,7-dimethyl- 1H,2″H-[3,4″-biindazol]-1-yl}pyridin-2- yl)morpholin-2-yl]acetic acid [Example 18]	28.8	1070
Cc1cccc2c(-c3cc(F)cc4nn(C)cc34)nn(-c3ccc(N4C[C@@H]5[C@H](C4)[C@H]5C(=O)O)nc3)c12 [Example 34, (1R,5S,6R)-3-(5-{6″-fluoro-2″,7-dimethyl-1H,2″H-[3,4″-biindazol]-1-yl}pyridin-2-yl)-3-azabicyclo[3.1.0]hexane-6-carboxylic acid]	24.8	3280
CC(=O)N1CCN(c2ccc(-n3nc(-c4cccc5nn(C)c(F)c45)c4cc(F)cc(C)c43)cn2)CC1 [Example 59, 1-[4-(5-{3″,5-difluoro-2″,7-dimethyl-1H,2″H-[3,4″-biindazol]-1-yl}pyridin-2-yl)piperazin-1-yl]ethan-1-one]	22.0	207
